{
  "source": "patent US11304944B2",
  "about": "“MetAP2 inhibitors and methods of treating obesity” (SynDevRx, Inc., priority 2013, dated 2022)",
  "key": {"DIO C57Bl6 mice": {"test_system": "DIO C57Bl6 mice", "details": "for Blood glucose: day 32, fasted three hours", "description": "C57Bl6 male mice (N=6) fifteen weeks old with an average of weight of 42 g were ad libitum fed TD.06414 a high fat diet composed of 60% Kcal from fat (Harlan diet). […] Animals were weighed every other day. Food consumption was measured weekly. […] Each animal was weighed and a baseline fasted glucose measurement collected. Each animal was given a 1 gram per kilogram dose of dextrose as a 25% solution by intraperitoneal injection."}, "DIO Levin rats": {"test_system": "DIO Levin rats", "assay": "Oral Glucose Tolerance Test (OGTT) Day 48 and HOMA-ir in DIO Levin rats", "type": "in vivo", "details": "for Blood Glucose, Time 15 / Blood Glucose, Time 30 / Blood Glucose, Time 60 / Blood Glucose, Time 90 / Blood Glucose, Time 120: OGTT; for BW: at OGTT", "description": "Animals were weighed every other day. Food consumption was measured weekly. On an approximately weekly basis throughout the study, blood samples were taken for assessment of serum chemistries including glucose and insulin. On Day 48 all rats underwent a 4 hour fasted Oral Glucose Tolerance Test (OGTT). Animals were dosed orally (per os, PO) at 8 mL/kg 25% glucose (2 g/kg). On day 68, gross pathology was performed to determine body composition."}, "[1]": {"details": "6.0 mg/kg q4d sc, IP-GTT day 24, ± SEM"}, "[2]": {"details": "6 mg/kg q4d sc, blood day 32, ± SEM"}, "[3]": {"details": "0.6 mg/kd (so in the source) q4d sc"}, "[4]": {"details": "03 mg/kg (so in the source) q4d sc"}},
  "note": "Where “and” joins values, the source holds several entries; their conditions need not be identical. Identical values can stand only once. Like-named read-outs stand apart in the source and are kept apart here.",
  "data": [
    {"substance": "poly[HPMA-co-MA-GFLG-N-(trans-4-aminocyclohexyl)carbamoylfumagillol] [Compound 16]", "values": [
      {"measurement": "Ing. Fat", "setting": "DIO C57Bl6 mice; 2.0 mg/kg q4d sc, day 32", "result": 1.81, "unit": "g"},
      {"measurement": "Liver", "setting": "DIO C57Bl6 mice; 2.0 mg/kg q4d sc, day 32", "result": 1.44, "unit": "g"},
      {"measurement": "RP Fat", "setting": "DIO C57Bl6 mice; 2.0 mg/kg q4d sc, day 32", "result": 0.89, "unit": "g"},
      {"measurement": "Total Fat", "setting": "DIO C57Bl6 mice; 2.0 mg/kg q4d sc, day 32", "result": 4.42, "unit": "g"},
      {"measurement": "avg B.W.", "setting": "DIO C57Bl6 mice; 2.0 mg/kg q4d sc, day 32", "result": 38.82, "unit": "g"},
      {"measurement": "Blood glucose", "setting": "DIO C57Bl6 mice; 2.0 mg/kg q4d sc", "result": 259, "unit": "mg/dL"},
      {"measurement": "weekly food consumption, % of vehicle", "setting": "DIO C57Bl6 mice; 6 mg/kg q4d, day 9-29", "result": 75, "unit": "%"},
      {"measurement": "Weekly food consumption Day 1-8", "setting": "DIO C57Bl6 mice; 6 mg/kg q4d sc", "result": 9.0, "unit": "g"},
      {"measurement": "Weekly food consumption Day 9-15", "setting": "DIO C57Bl6 mice; 6 mg/kg q4d sc", "result": 17.5, "unit": "g"},
      {"measurement": "Weekly food consumption Day 15-22", "setting": "DIO C57Bl6 mice; 6 mg/kg q4d sc", "result": 17.8, "unit": "g"},
      {"measurement": "Weekly food consumption Day 22-29", "setting": "DIO C57Bl6 mice; 6 mg/kg q4d sc", "result": 16.1, "unit": "g"},
      {"measurement": "Group BW ± SEM, Day 32", "setting": "DIO C57Bl6 mice; 6.0 mg/kg q4d sc", "result": "33.6 ± 0.72", "unit": "g"},
      {"measurement": "Weight Change from day 1", "setting": "DIO C57Bl6 mice; 6.0 mg/kg q4d sc, Day 32", "result": "−20.0", "unit": "%"},
      {"measurement": "Average BW", "setting": "DIO C57Bl6 mice; 6.0 mg/kg q4d sc, IP-GTT day 24", "result": 33.0, "unit": "g"},
      {"measurement": "Blood Glucose 120", "setting": "DIO C57Bl6 mice; [1]", "result": "177 ± 9.3", "unit": "mg/dL"},
      {"measurement": "Blood Glucose 15 min", "setting": "DIO C57Bl6 mice; [1]", "result": "473 ± 39.1", "unit": "mg/dL"},
      {"measurement": "Blood Glucose 30 min", "setting": "DIO C57Bl6 mice; [1]", "result": "355 ± 23.8", "unit": "mg/dL"},
      {"measurement": "Blood Glucose 60 min", "setting": "DIO C57Bl6 mice; [1]", "result": "324 ± 19.1", "unit": "mg/dL"},
      {"measurement": "Blood Glucose 90 min", "setting": "DIO C57Bl6 mice; [1]", "result": "240 ± 6.7", "unit": "mg/dL"},
      {"measurement": "Blood Glucose Fasting", "setting": "DIO C57Bl6 mice; [1]", "result": "185 ± 6.5", "unit": "mg/dL"},
      {"measurement": "CHOLESTEROL", "setting": "DIO C57Bl6 mice; [2]", "result": "109 ± 2.6", "unit": "mg/dL"},
      {"measurement": "HDL CHOLESTEROL", "setting": "DIO C57Bl6 mice; [2]", "result": "72 ± 1.3", "unit": "mg/dL"},
      {"measurement": "HDL/LDL ratio", "setting": "DIO C57Bl6 mice; [2]", "result": "9.0 ± 0.5"},
      {"measurement": "LDL", "setting": "DIO C57Bl6 mice; [2]", "result": "8 ± 0.5", "unit": "mg/dL"},
      {"measurement": "TRIGLYCERIDE", "setting": "DIO C57Bl6 mice; [2]", "result": "81 ± 13.6", "unit": "mg/dL"},
      {"measurement": "Epid. Fat", "setting": "DIO C57Bl6 mice; 6.0 mg/kg q4d sc, day 32", "result": 1.11, "unit": "g"},
      {"measurement": "Fat % BW", "setting": "DIO C57Bl6 mice; 6.0 mg/kg q4d sc, day 32", "result": "10% and 9.7%"},
      {"measurement": "Ing. Fat", "setting": "DIO C57Bl6 mice; 6.0 mg/kg q4d sc, day 32", "result": 1.54, "unit": "g"},
      {"measurement": "Liver", "setting": "DIO C57Bl6 mice; 6.0 mg/kg q4d sc, day 32", "result": 1.30, "unit": "g"},
      {"measurement": "RP Fat", "setting": "DIO C57Bl6 mice; 6.0 mg/kg q4d sc, day 32", "result": 0.60, "unit": "g"},
      {"measurement": "Total Fat", "setting": "DIO C57Bl6 mice; 6.0 mg/kg q4d sc, day 32", "result": 3.25, "unit": "g"},
      {"measurement": "avg B.W.", "setting": "DIO C57Bl6 mice; 6.0 mg/kg q4d sc, day 32", "result": 33.60, "unit": "g"},
      {"measurement": "Blood glucose", "setting": "DIO C57Bl6 mice; 6.0 mg/kg q4d sc", "result": 227, "unit": "mg/dL"},
      {"measurement": "HOMA-ir (Insulin Sensitivity) 15 min", "setting": "DIO Levin rats; 0.3 mg/kg q4d sc", "result": 40.1},
      {"measurement": "HOMA-ir (Insulin Sensitivity) 30 min", "setting": "DIO Levin rats; 0.3 mg/kg q4d sc", "result": 10.8},
      {"measurement": "HOMA-ir (Insulin Sensitivity) Pre-dose", "setting": "DIO Levin rats; 0.3 mg/kg q4d sc", "result": 14.6},
      {"measurement": "Blood Glucose pre-OGTT", "setting": "DIO Levin rats; [3]", "result": 121, "unit": "mg/dL"},
      {"measurement": "Blood Glucose, Time 15", "setting": "DIO Levin rats; [3]", "result": 150, "unit": "mg/dL"},
      {"measurement": "Blood Glucose, Time 30", "setting": "DIO Levin rats; [3]", "result": 148, "unit": "mg/dL"},
      {"measurement": "Blood Glucose, Time 60", "setting": "DIO Levin rats; [3]", "result": 149, "unit": "mg/dL"},
      {"measurement": "Blood Glucose, Time 90", "setting": "DIO Levin rats; [3]", "result": 143, "unit": "mg/dL"},
      {"measurement": "Blood Glucose, Time 120", "setting": "DIO Levin rats; [3]", "result": 150, "unit": "mg/dL"},
      {"measurement": "BW", "setting": "DIO Levin rats; [3]", "result": 662, "unit": "g"},
      {"measurement": "HOMA-ir (Insulin Sensitivity) 15 min", "setting": "DIO Levin rats; 1 mg/kg q4d sc", "result": 50.1},
      {"measurement": "HOMA-ir (Insulin Sensitivity) 30 min", "setting": "DIO Levin rats; 1 mg/kg q4d sc", "result": 18.1},
      {"measurement": "HOMA-ir (Insulin Sensitivity) Pre-dose", "setting": "DIO Levin rats; 1 mg/kg q4d sc", "result": 16.4},
      {"measurement": "Blood Glucose pre-OGTT", "setting": "DIO Levin rats; [4]", "result": 121, "unit": "mg/dL"},
      {"measurement": "Blood Glucose, Time 15", "setting": "DIO Levin rats; [4]", "result": 156, "unit": "mg/dL"},
      {"measurement": "Blood Glucose, Time 30", "setting": "DIO Levin rats; [4]", "result": 145, "unit": "mg/dL"},
      {"measurement": "Blood Glucose, Time 60", "setting": "DIO Levin rats; [4]", "result": 157, "unit": "mg/dL"},
      {"measurement": "Blood Glucose, Time 90", "setting": "DIO Levin rats; [4]", "result": 149, "unit": "mg/dL"},
      {"measurement": "Blood Glucose, Time 120", "setting": "DIO Levin rats; [4]", "result": 147, "unit": "mg/dL"},
      {"measurement": "BW", "setting": "DIO Levin rats; [4]", "result": 697, "unit": "g"},
      {"measurement": "Blood Glucose pre-OGTT", "setting": "DIO Levin rats; 3 mg/kg q4d sc", "result": 120, "unit": "mg/dL"},
      {"measurement": "HOMA-ir (Insulin Sensitivity) 15 min", "setting": "DIO Levin rats; 3 mg/kg q4d sc", "result": 13.7},
      {"measurement": "HOMA-ir (Insulin Sensitivity) 30 min", "setting": "DIO Levin rats; 3 mg/kg q4d sc", "result": 4.6},
      {"measurement": "HOMA-ir (Insulin Sensitivity) Pre-dose", "setting": "DIO Levin rats; 3 mg/kg q4d sc", "result": 9.2},
      {"measurement": "Blood Glucose, Time 15", "setting": "DIO Levin rats; 3 mg/kg q4d sc", "result": 157, "unit": "mg/dL"},
      {"measurement": "Blood Glucose, Time 30", "setting": "DIO Levin rats; 3 mg/kg q4d sc", "result": 144, "unit": "mg/dL"},
      {"measurement": "Blood Glucose, Time 60", "setting": "DIO Levin rats; 3 mg/kg q4d sc", "result": 140, "unit": "mg/dL"},
      {"measurement": "Blood Glucose, Time 90", "setting": "DIO Levin rats; 3 mg/kg q4d sc", "result": 127, "unit": "mg/dL"},
      {"measurement": "Blood Glucose, Time 120", "setting": "DIO Levin rats; 3 mg/kg q4d sc", "result": 129, "unit": "mg/dL"},
      {"measurement": "BW", "setting": "DIO Levin rats; 3 mg/kg q4d sc", "result": 582, "unit": "g"},
      {"measurement": "Blood Glucose pre-OGTT", "setting": "DIO Levin rats; 6 mg, q7d sc", "result": 128, "unit": "mg/dL"},
      {"measurement": "HOMA-ir (Insulin Sensitivity) 15 min", "setting": "DIO Levin rats; 6 mg, q7d sc", "result": 37.2},
      {"measurement": "HOMA-ir (Insulin Sensitivity) 30 min", "setting": "DIO Levin rats; 6 mg, q7d sc", "result": 3.5},
      {"measurement": "HOMA-ir (Insulin Sensitivity) Pre-dose", "setting": "DIO Levin rats; 6 mg, q7d sc", "result": 12.0},
      {"measurement": "Blood Glucose, Time 15", "setting": "DIO Levin rats; 6 mg, q7d sc", "result": 161, "unit": "mg/dL"},
      {"measurement": "Blood Glucose, Time 30", "setting": "DIO Levin rats; 6 mg, q7d sc", "result": 141, "unit": "mg/dL"},
      {"measurement": "Blood Glucose, Time 60", "setting": "DIO Levin rats; 6 mg, q7d sc", "result": 145, "unit": "mg/dL"},
      {"measurement": "Blood Glucose, Time 90", "setting": "DIO Levin rats; 6 mg, q7d sc", "result": 145, "unit": "mg/dL"},
      {"measurement": "Blood Glucose, Time 120", "setting": "DIO Levin rats; 6 mg, q7d sc", "result": 138, "unit": "mg/dL"},
      {"measurement": "BW", "setting": "DIO Levin rats; 6 mg, q7d sc", "result": 604, "unit": "g"}
    ]}
  ]
}
